Our source for the EC50 values is patent EP3227262B1, “SULFIDE ALKYL AND PYRIDYL REVERSE SULFONAMIDE COMPOUNDS FOR HBV TREATMENT” (Novira Therapeutics Inc., priority 2014, dated 2016).

SMILES strings stand for the structures.

For the assay, the system named is HBV. As to the kind of experiment: Inhibition of HBV replication dot-blot assay in HBV-producing hepatoma cell line. The assay is classed as cell-based. The note with it: Hepatitis B virus, 144 h; activity in Dot-Blot assay; HepG2-2.2.15 cells; reduction in HBV DNA levels, six days. The procedure:
Compounds active in the HBV assembly assay are tested for their activity and toxicity in cellular assay. In the first anti-viral assay, the ability of compounds to inhibit HBV replication in an HBV-producing hepatoma cell line using the dot-blot method is evaluated.
(§1) Briefly, confluent monolayers of HepG2-2.2.15 cells are incubated with complete medium containing various concentrations of a test compound. Three days later, the culture medium is replaced with fresh medium containing the appropriately diluted test compound. Six days following the initial administration of the test compound, the cell culture supernatant is collected, and cell lysis is performed. The samples are applied onto Nylos membranes and DNA is immobilized to the membrane by UV cross-linking. After pre-hybridization, the HBV probe is added and the hybridization is performed overnight. The membranes are exposed to the KODAK films; antiviral activity is calculated from the reduction in HBV DNA levels (EC50). The EC50 for antiviral activity is calculated from the dose response curves of active compounds. Assay performance over time is monitored by the use of the standard positive control compounds ETV, BAY 41-4109, and HAP-1.
Selected compounds are tested for their activity and toxicity in cellular assay. In the first anti-viral assay, the ability of compounds to inhibit HBV replication in an HBV-producing hepatoma cell line using the dot-blot method is evaluated.
as §1, with “Confluent monolayers” for “Briefly, confluent monolayers”, “lysis was” for “lysis is”

The compound `O=C(Nc1ccc(F)c(Cl)c1)c1cccc(SC2CCC(O)CC2)c1` (mixture of isomers) [Compound 34, (cis/trans)-N-(3-Chloro-4-fluorophenyl)-3-((4-hydroxycyclohexyl)thio)benzamide] came in with an EC50 below 10 µM.

Turning to `O=C(Nc1ccc(F)c(Cl)c1)c1ccc(F)c(SC2CC(C(=O)O)C2)c1` (mixture of isomers) [Compound 58, (cis/trans)-3-((5-((3-Chloro-4-fluorophenyl)carbamoyl)-2-fluorophenyl)thio)cyclobutanecarboxylic acid], the EC50 is below 10 µM.

On to `O=C(Nc1ccc(F)c(F)c1)c1ccc(F)c(SC2CC(C(=O)O)C2)c1` (mixture of isomers) [Compound 59, (cis/trans)-3-((5-((3,4-Difluorophenyl)carbamoyl)-2-fluorophenyl)thio)cyclobutanecarboxylic acid], for which the EC50 was below 10 µM.

Consider `O=C(Nc1ccc(F)c(Cl)c1)c1ccc(F)c(SC2CCC(C(=O)O)CC2)c1` (mixture of isomers) [Compound 61, (cis/trans)-4-((5-((3-Chloro-4-fluorophenyl)carbamoyl)-2-fluorophenyl)thio)cyclohexanecarboxylic acid], for which the EC50 is below 10 µM.

As for `COc1ccc(C(=O)Nc2ccc(F)c(Cl)c2)cc1SC1CCC(O)CC1` (mixture of isomers) [Compound 70, (cis/trans)-N-(3-Chloro-4-fluorophenyl)-3-((4-hydroxycyclohexyl)thio)-4-methoxybenzamide], the EC50 was below 10 µM.

Regarding `O=C(Nc1ccc(F)c(Cl)c1)c1ccc(Cl)c(SC2CCC(O)CC2)c1` (mixture of isomers) [Compound 75, (cis/trans)-4-Chloro-N-(3-chloro-4-fluorophenyl)-3-((4-hydroxycyclohexyl)thio)benzamide], the EC50 is below 10 µM.

The compound `Cc1ccc(C(=O)Nc2cc(F)c(F)c(F)c2)cc1SC1CCC(O)CC1` (mixture of isomers) [Compound 77, (cis/trans)-3-((4-Hydroxycyclohexyl)thio)-4-methyl-N-(3,4,5-trifluorophenyl)benzamide] gave an EC50 below 10 µM.

Compound `O=C(Nc1cc(F)c(F)c(F)c1)c1ccc(Cl)c(SC2CCC(O)CC2)c1` (mixture of isomers) [Compound 81, (cis/trans)-4-Chloro-3-((4-hydroxycyclohexyl)thio)-N-(3,4,5-trifluorophenyl)benzamide] came in with an EC50 below 10 µM.

For `COc1ccc(C(=O)Nc2cc(F)c(F)c(F)c2)cc1SC1CCC(O)CC1` (mixture of isomers) [Compound 84, (cis/trans)-3-((4-Hydroxycyclohexyl)thio)-4-methoxy-N-(3,4,5-trifluorophenyl)benzamide], the EC50 is below 10 µM.

Regarding `O=C(Nc1ccc(F)c(F)c1)c1ccc(Cl)c(SC2CCC(O)CC2)c1` (mixture of isomers) [Compound 87, (cis/trans)-4-Chloro-N-(3,4-difluorophenyl)-3-((4-hydroxycyclohexyl)thio)benzamide], the EC50 was below 10 µM.

`COc1ccc(C(=O)Nc2ccc(F)c(F)c2)cc1SC1CCC(O)CC1` (mixture of isomers) [Compound 89, (cis/trans)-N-(3,4-Difluorophenyl)-3-((4-hydroxycyclohexyl)thio)-4-methoxybenzamide] showed an EC50 below 10 µM.

The compound `N#Cc1ccc(C(=O)Nc2ccc(F)c(F)c2)cc1SC1CCC(O)CC1` (mixture of isomers) [Compound 93, (cis/trans)-4-Cyano-N-(3,4-difluorophenyl)-3-((4-hydroxycyclohexyl)thio)benzamide] returned an EC50 below 10 µM.

For the compound `N#Cc1ccc(C(=O)Nc2ccc(F)c(Cl)c2)cc1SC1CCC(O)CC1` (mixture of isomers) [Compound 95, (cis/trans)-N-(3-Chloro-4-fluorophenyl)-4-cyano-3-((4-hydroxycyclohexyl)thio)benzamide], the EC50 is below 10 µM.

A word on the EC50: it is the concentration needed to bring the measured effect to its halfway point.
